From ChEMBL document CHEMBL1201862, “PubChem BioAssay data set” (2004)
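Cultured in 96-well plates, cells were exposed to test compound for 48 hours across five concentrations. GI50: concentration for 50% inhibition of growth.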 Calls of active or inactive are those of the source. Cut-off read from the data, not from the text of the source: active = GI50 up to about 1.1 µM and inactive = higher.

How the values were obtained:
Test in all cases: DTP human tumour cell line panel, 48 h
786-0 = system: 786-0
A498 = system: A498
A549 = system: A549
ACHN = system: ACHN
BT-549 = system: BT-549
CAKI-1 = system: CAKI-1
CCRF-CEM = system: CCRF-CEM
COLO 205 = system: COLO 205
DU-145 = system: DU-145
EKVX = system: EKVX
HCC 2998 = system: HCC 2998
HCT-116 = system: HCT-116
HCT-15 = system: HCT-15
HL-60 = system: HL-60
HOP-62 = system: HOP-62
HOP-92 = system: HOP-92
HT-29 = system: HT-29
Hs-578T = system: Hs-578T
IGROV-1 = system: IGROV-1
K562 = system: K562
KM12 = system: KM12
LOX IMVI = system: LOX IMVI
M14 = system: M14
MCF7 = system: MCF7
MDA-MB-231 = system: MDA-MB-231
MDA-MB-435 = system: MDA-MB-435
MDA-N = system: MDA-N
MOLT-4 = system: MOLT-4
Malme-3M = system: Malme-3M
NCI-H226 = system: NCI-H226
NCI-H23 = system: NCI-H23
NCI-H460 = system: NCI-H460
NCI-H522 = system: NCI-H522
NCI/ADR-RES = system: NCI/ADR-RES
OVCAR-3 = system: OVCAR-3
OVCAR-4 = system: OVCAR-4
OVCAR-5 = system: OVCAR-5
OVCAR-8 = system: OVCAR-8
PC-3 = system: PC-3
RPMI-8226 = system: RPMI-8226
RXF 393 = system: RXF 393
SF-268 = system: SF-268
SF-295 = system: SF-295
SF-539 = system: SF-539
SK-MEL-28 = system: SK-MEL-28
SK-MEL-2 = system: SK-MEL-2
SK-MEL-5 = system: SK-MEL-5
SK-OV-3 = system: SK-OV-3
SN12C = system: SN12C
SNB-19 = system: SNB-19
SNB-75 = system: SNB-75
SR = system: SR
SW-620 = system: SW-620
T47D = system: T47D
TK-10 = system: TK-10
U-251 = system: U-251
UACC-257 = system: UACC-257
UACC-62 = system: UACC-62
UO-31 = system: UO-31

## CC(C)CC(NC(O)[BH2-][N+](C)(C)C)C(=O)NC(Cc1ccccc1)C(=O)N[C@H]1c2ccsc2/C(=N/O)[C@H]1O (stereo partly drawn)
786-0
  GI50: > 100 µM (inactive)
A498
  GI50: > 100 µM (inactive)
A549
  GI50: > 100 µM (inactive)
ACHN
  GI50: > 100 µM (inactive)
BT-549
  GI50: > 100 µM (inactive)
CAKI-1
  GI50: > 100 µM (inactive)
CCRF-CEM
  GI50: > 100 µM (inactive)
COLO 205
  GI50: > 100 µM (inactive)
DU-145
  GI50: > 100 µM (inactive)
EKVX
  GI50: > 100 µM (inactive)
HCC 2998
  GI50: > 100 µM (inactive)
HCT-116
  GI50: > 100 µM (inactive)
HCT-15
  GI50: > 100 µM
HL-60
  GI50: > 100 µM (inactive)
HOP-62
  GI50: > 100 µM (inactive)
HOP-92
  GI50: > 100 µM (inactive)
HT-29
  GI50: > 100 µM (inactive)
Hs-578T
  GI50: > 100 µM (inactive)
IGROV-1
  GI50: > 100 µM (inactive)
K562
  GI50: > 100 µM (inactive)
KM12
  GI50: > 100 µM (inactive)
LOX IMVI
  GI50: > 100 µM (inactive)
M14
  GI50: > 100 µM (inactive)
MCF7
  GI50: > 100 µM (inactive)
MDA-MB-231
  GI50: > 100 µM (inactive)
MDA-MB-435
  GI50: > 100 µM (inactive)
MDA-N
  GI50: > 100 µM (inactive)
MOLT-4
  GI50: > 100 µM (inactive)
Malme-3M
  GI50: > 100 µM (inactive)
NCI-H226
  GI50: > 100 µM (inactive)
NCI-H23
  GI50: > 100 µM (inactive)
NCI-H460
  GI50: > 100 µM (inactive)
NCI-H522
  GI50: > 100 µM (inactive)
NCI/ADR-RES
  GI50: > 100 µM (inactive)
OVCAR-3
  GI50: > 100 µM (inactive)
OVCAR-4
  GI50: > 100 µM (inactive)
OVCAR-5
  GI50: > 100 µM (inactive)
OVCAR-8
  GI50: > 100 µM (inactive)
PC-3
  GI50: > 100 µM (inactive)
RPMI-8226
  GI50: > 100 µM (inactive)
RXF 393
  GI50: > 100 µM (inactive)
SF-268
  GI50: > 100 µM (inactive)
SF-295
  GI50: > 100 µM (inactive)
SF-539
  GI50: > 100 µM (inactive)
SK-MEL-28
  GI50: > 100 µM (inactive)
SK-MEL-2
  GI50: > 100 µM (inactive)
SK-MEL-5
  GI50: > 100 µM (inactive)
SK-OV-3
  GI50: > 100 µM (inactive)
SN12C
  GI50: > 100 µM (inactive)
SNB-19
  GI50: > 100 µM (inactive)
SNB-75
  GI50: > 100 µM (inactive)
SR
  GI50: > 100 µM (inactive)
SW-620
  GI50: > 100 µM (inactive)
T47D
  GI50: > 100 µM (inactive)
TK-10
  GI50: > 100 µM (inactive)
U-251
  GI50: > 100 µM (inactive)
UACC-257
  GI50: > 100 µM (inactive)
UACC-62
  GI50: > 100 µM (inactive)
UO-31
  GI50: > 100 µM (inactive)

## Nc1nc(SCC(=O)c2ccccc2)nc2nc3c(c(-c4ccccc4)c12)CCCC3
786-0
  GI50: 20.6 µM (inactive)
A498
  GI50: 19.8 µM (inactive)
A549
  GI50: 45.1 µM (inactive)
ACHN
  GI50: 56.6 µM (inactive)
BT-549
  GI50: 40.9 µM (inactive)
CAKI-1
  GI50: 15.3 µM (inactive)
CCRF-CEM
  GI50: 74.8 µM (inactive)
COLO 205
  GI50: > 10 µM (inactive)
DU-145
  GI50: > 100 µM (inactive)
EKVX
  GI50: 63.4 µM (inactive)
HCC 2998
  GI50: 33 µM (inactive)
HCT-116
  GI50: 30.5 µM (inactive)
HCT-15
  GI50: > 100 µM
HL-60
  GI50: > 100 µM (inactive)
HOP-62
  GI50: 41.9 µM (inactive)
HOP-92
  GI50: > 10 µM (inactive)
HT-29
  GI50: 27.1 µM (inactive)
Hs-578T
  GI50: 19.1 µM (inactive)
IGROV-1
  GI50: > 10 µM (inactive)
K562
  GI50: > 100 µM (inactive)
KM12
  GI50: 22.4 µM (inactive)
LOX IMVI
  GI50: 24.8 µM (inactive)
M14
  GI50: 19.2 µM (inactive)
MCF7
  GI50: 47.8 µM (inactive)
MDA-MB-231
  GI50: 19.1 µM (inactive)
MDA-MB-435
  GI50: 32.6 µM (inactive)
MDA-N
  GI50: 31.9 µM (inactive)
MOLT-4
  GI50: > 100 µM (inactive)
Malme-3M
  GI50: 52.4 µM (inactive)
NCI-H226
  GI50: 18.1 µM (inactive)
NCI-H23
  GI50: 76.2 µM (inactive)
NCI-H460
  GI50: 32.9 µM (inactive)
NCI-H522
  GI50: 31.2 µM (inactive)
NCI/ADR-RES
  GI50: 25.6 µM (inactive)
OVCAR-3
  GI50: 22.5 µM (inactive)
OVCAR-4
  GI50: 23.4 µM (inactive)
OVCAR-5
  GI50: 52 µM (inactive)
OVCAR-8
  GI50: 27.2 µM (inactive)
PC-3
  GI50: > 10 µM (inactive)
RPMI-8226
  GI50: > 100 µM (inactive)
RXF 393
  GI50: 17.7 µM (inactive)
SF-268
  GI50: 18.4 µM (inactive)
SF-295
  GI50: > 10 µM (inactive)
SF-539
  GI50: > 100 µM (inactive)
SK-MEL-28
  GI50: 21.9 µM (inactive)
SK-MEL-2
  GI50: 27.9 µM (inactive)
SK-MEL-5
  GI50: 49.1 µM (inactive)
SK-OV-3
  GI50: 4.71 µM (inactive)
SN12C
  GI50: 38.5 µM (inactive)
SNB-19
  GI50: 49.9 µM (inactive)
SNB-75
  GI50: 26.4 µM (inactive)
SR
  GI50: > 100 µM (inactive)
SW-620
  GI50: > 10 µM (inactive)
T47D
  GI50: 40.3 µM (inactive)
TK-10
  GI50: > 100 µM (inactive)
U-251
  GI50: 32 µM (inactive)
UACC-257
  GI50: 35 µM (inactive)
UACC-62
  GI50: 23.3 µM (inactive)
UO-31
  GI50: 12.4 µM (inactive)
